This assay concerns the target T1, c-kit autophosphorylation (Phospho c-Kit Tyr721) in HMC 1.1 (exon 11/13) cells, V654A (Homo sapiens, UniProt P10721, V560G/V654A).
T1 construct: endogenous in cells; host or cells: HMC 1.1 (exon 11/13) cells
The assay is described as follows: pKIT Meso Scale Discovery (MSD) assay, inhibition of autophosphorylation of KIT, HMC1.1_V654A. In kind it is cell-based. Particulars: Table 1, cell line not named for Table 1, b1056 names pKIT HMC1.1_V654A, read-out: Code (IC50 for inhibition of autophosphorylation of KIT, pKIT MSD assay). Put shortly:
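HMC1.1 cells were serum-starved for 4 h in serum-free, iron-free, phenol red-free IMDM, then treated with compound in dose-response for 90 min at 37 °C. Staurosporine and DMSO served as controls. Lysates were analysed by MSD electrochemiluminescence immunoassay for phospho-c-Kit Tyr721, and % inhibition of autophosphorylation was derived.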
T1 sequence (P10721 26-976 V560G/V654A): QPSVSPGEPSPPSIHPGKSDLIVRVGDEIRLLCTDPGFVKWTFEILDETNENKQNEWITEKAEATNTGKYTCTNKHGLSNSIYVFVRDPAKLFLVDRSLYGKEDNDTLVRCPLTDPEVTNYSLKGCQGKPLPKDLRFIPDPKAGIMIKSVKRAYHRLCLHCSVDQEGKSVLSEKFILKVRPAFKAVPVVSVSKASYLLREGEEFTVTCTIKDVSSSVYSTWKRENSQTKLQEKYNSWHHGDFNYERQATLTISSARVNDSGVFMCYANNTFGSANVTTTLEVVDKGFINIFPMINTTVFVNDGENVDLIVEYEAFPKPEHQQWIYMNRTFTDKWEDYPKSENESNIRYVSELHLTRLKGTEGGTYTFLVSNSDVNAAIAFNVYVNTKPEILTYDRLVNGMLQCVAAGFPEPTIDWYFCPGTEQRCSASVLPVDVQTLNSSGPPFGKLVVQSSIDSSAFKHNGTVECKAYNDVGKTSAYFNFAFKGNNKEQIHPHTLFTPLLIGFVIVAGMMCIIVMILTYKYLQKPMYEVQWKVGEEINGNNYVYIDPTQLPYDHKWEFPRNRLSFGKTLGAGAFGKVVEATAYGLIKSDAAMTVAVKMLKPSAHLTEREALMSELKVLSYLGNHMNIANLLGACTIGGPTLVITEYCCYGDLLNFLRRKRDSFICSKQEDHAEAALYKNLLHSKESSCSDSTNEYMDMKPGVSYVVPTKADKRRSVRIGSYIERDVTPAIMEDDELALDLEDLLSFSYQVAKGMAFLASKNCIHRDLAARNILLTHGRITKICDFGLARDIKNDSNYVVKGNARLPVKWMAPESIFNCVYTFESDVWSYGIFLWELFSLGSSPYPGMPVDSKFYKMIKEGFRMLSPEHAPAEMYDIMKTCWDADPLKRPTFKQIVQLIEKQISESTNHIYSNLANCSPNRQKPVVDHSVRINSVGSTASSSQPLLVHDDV
Regarding `CCNc1cc(Nc2cc(N)nc(C(F)F)n2)ncc1C(=O)NCc1ccccn1` [Compound 131, 6-((6-amino-2-(difluoromethyl)pyrimidin-4-yl)amino)-4-(ethylamino)-N-(pyridin-2-ylmethyl)nicotinamide], the IC50 is < 10 nM.

Take `Cn1cc(-c2cnc(Nc3cc(N)nc(C(F)F)n3)cc2OCC(F)(F)F)cn1` [Compound 132, 2-(difluoromethyl)-N4-(5-(1-methyl-1H-pyrazol-4-yl)-4-(2,2,2-trifluoroethoxy)pyridin-2-yl)pyrimidine-4,6-diamine]: the IC50 was < 10 nM.

Turning to `Nc1cc(Nc2cc(OC3CC3)c(-c3cnn(C4COC4)c3)cn2)nc(C(F)F)n1` [Compound 133, N4-(4-cyclopropoxy-5-(1-(oxetan-3-yl)-1H-pyrazol-4-yl)pyridin-2-yl)-2-(difluoromethyl)pyrimidine-4,6-diamine], the IC50 is < 10 nM.

In the case of `Nc1cc(Nc2cc(NC3CC3)c(C(=O)NCc3cocn3)cn2)nc(C(F)F)n1` [Compound 134, 6-((6-amino-2-(difluoromethyl)pyrimidin-4-yl)amino)-4-(cyclopropylamino)-N-(oxazol-4-ylmethyl)nicotinamide], the IC50 is < 10 nM.

Take `Nc1cc(Nc2cc(NC3CC3)c(C(=O)NCc3ncco3)cn2)nc(C(F)F)n1` [Compound 135, 6-((6-amino-2-(difluoromethyl)pyrimidin-4-yl)amino)-4-(cyclopropylamino)-N-(oxazol-2-ylmethyl)nicotinamide]: the IC50 was < 10 nM.

Consider `CNCCn1cc(-c2cnc(Nc3cc(N)nc(C(F)F)n3)cc2OC2CC2)cn1` [Compound 136, N4-(4-cyclopropoxy-5-(1-(2-(methylamino)ethyl)-1H-pyrazol-4-yl)pyridin-2-yl)-2-(difluoromethyl)pyrimidine-4,6-diamine], for which the IC50 was < 10 nM.

Take `COc1cc(Nc2cc(N)nc(C(F)F)n2)ncc1-c1cnn(CCN2CCC2)c1` [Compound 137, N4-(5-(1-(2-(azetidin-1-yl)ethyl)-1H-pyrazol-4-yl)-4-methoxypyridin-2-yl)-2-(difluoromethyl)pyrimidine-4,6-diamine]: the IC50 was 10 to 40 nM.

As for `COc1cc(Nc2cc(N)nc(C(F)F)n2)ncc1-c1cnn(C2CCN(C)C2)c1` (stereo not drawn) [Compound 140, 2-(difluoromethyl)-N4-(4-methoxy-5-(1-(1-methylpyrrolidin-3-yl)-1H-pyrazol-4-yl)pyridin-2-yl)pyrimidine-4,6-diamine], the IC50 was < 10 nM.

In the case of `CCOc1cc(Nc2cc(N)nc(C(F)F)n2)ncc1-c1cnn(C2CN(C)C2)c1` [Compound 141, 2-(difluoromethyl)-N4-(4-ethoxy-5-(1-(1-methylazetidin-3-yl)-1H-pyrazol-4-yl)pyridin-2-yl)pyrimidine-4,6-diamine], the IC50 was < 10 nM.

For the compound `Cn1cc(-c2cnc(Nc3cc(N)nc(C(F)F)n3)cc2OC2CCCOC2)cn1` (stereo not drawn) [Compound 142, 2-(difluoromethyl)-N4-(5-(1-methyl-1H-pyrazol-4-yl)-4-((tetrahydro-2H-pyran-3-yl)oxy)pyridin-2-yl)pyrimidine-4,6-diamine], the IC50 was < 10 nM.

With `Cn1cc(-c2cnc(Nc3cc(N)nc(C(F)F)n3)cc2OCC2CCCO2)cn1` (stereo not drawn) [Compound 143, 2-(difluoromethyl)-N4-(5-(1-methyl-1H-pyrazol-4-yl)-4-((tetrahydrofuran-2-yl)methoxy)pyridin-2-yl)pyrimidine-4,6-diamine], the IC50 was < 10 nM.

Regarding `Cn1cc(-c2cnc(Nc3cc(N)nc(C(F)F)n3)cc2OC[C@H]2C[C@H](O)C2)cn1` [Compound 144, (1r,3r)-3-(((2-((6-amino-2-(difluoromethyl)pyrimidin-4-yl)amino)-5-(1-methyl-1H-pyrazol-4-yl)pyridin-4-yl)oxy)methyl)cyclobutan-1-ol], the IC50 is 10 to 40 nM.

As to `Cn1cc(-c2cnc(Nc3cc(N)nc(C(F)F)n3)cc2OCC2CC(O)C2)cn1` (stereo not drawn) [Compound 145, 3-(((2-((6-amino-2-(difluoromethyl)pyrimidin-4-yl)amino)-5-(1-methyl-1H-pyrazol-4-yl)pyridin-4-yl)oxy)methyl)cyclobutan-1-ol], the IC50 fell in the range of 10 to 40 nM.

For `COCCn1cc(-c2cnc(Nc3cc(N)nc(C(F)F)n3)cc2OC2CC2)cn1` [Compound 146, N4-(4-cyclopropoxy-5-(1-(2-methoxyethyl)-1H-pyrazol-4-yl)pyridin-2-yl)-2-(difluoromethyl)pyrimidine-4,6-diamine], the IC50 is < 10 nM.

Turning to `CC(C)Nc1cc(Nc2cc(N)nc(C(F)F)n2)ncc1C(=O)NCc1cocn1` [Compound 147, 6-((6-amino-2-(difluoromethyl)pyrimidin-4-yl)amino)-4-(isopropylamino)-N-(oxazol-4-ylmethyl)nicotinamide], the IC50 is < 10 nM.

With `CC(C)Nc1cc(Nc2cc(N)nc(C(F)F)n2)ncc1C(=O)NCc1ncco1` [Compound 148, 6-((6-amino-2-(difluoromethyl)pyrimidin-4-yl)amino)-4-(isopropylamino)-N-(oxazol-2-ylmethyl)nicotinamide], the IC50 was < 10 nM.

With `CCNc1cc(Nc2cc(N)nc(C(F)F)n2)ncc1C(=O)NC1CC2(CNC2)C1` [Compound 149, 6-((6-amino-2-(difluoromethyl)pyrimidin-4-yl)amino)-4-(ethylamino)-N-(2-azaspiro[3.3]heptan-6-yl)nicotinamide], the IC50 is > 40 nM.

Consider `COc1cc(Nc2cc(N)nc(C(F)F)n2)ncc1-c1cnn(CC(C)N(C)C)c1` (stereo not drawn) [Compound 150, 2-(difluoromethyl)-N4-(5-(1-(2-(dimethylamino)propyl)-1H-pyrazol-4-yl)-4-methoxypyridin-2-yl)pyrimidine-4,6-diamine], for which the IC50 is < 10 nM.

For the compound `CCNc1cc(Nc2cc(N)nc(C(F)F)n2)ncc1C(=O)NC12CC(CO)(C1)C2` [Compound 151, 6-((6-amino-2-(difluoromethyl)pyrimidin-4-yl)amino)-4-(ethylamino)-N-(3-(hydroxymethyl)bicyclo[1.1.1]pentan-1-yl)nicotinamide], the IC50 is < 10 nM.

Take `CCOc1cc(Nc2cc(N)nc(C(F)F)n2)ncc1-c1cnn(CC(C)(C)O)c1` [Compound 152, 1-(4-(6-((6-amino-2-(difluoromethyl)pyrimidin-4-yl)amino)-4-ethoxypyridin-3-yl)-1H-pyrazol-1-yl)-2-methylpropan-2-ol]: the IC50 is < 10 nM.

Turning to `Nc1cc(Nc2cc(NC3CC3)c(C(=O)NCc3ccccn3)cn2)nc(C(F)F)n1` [Compound 153, 6-((6-amino-2-(difluoromethyl)pyrimidin-4-yl)amino)-4-(cyclopropylamino)-N-(pyridin-2-ylmethyl)nicotinamide], the IC50 was < 10 nM.

Consider `Nc1cc(Nc2cc(OC(F)(F)F)c(-c3cnn(C4CC4)c3)cn2)nc(C(F)F)n1` [Compound 154, N4-(5-(1-cyclopropyl-1H-pyrazol-4-yl)-4-(trifluoromethoxy)pyridin-2-yl)-2-(difluoromethyl)pyrimidine-4,6-diamine], for which the IC50 is < 10 nM.

With `CC(O)Cn1cc(-c2cnc(Nc3cc(N)nc(C(F)F)n3)cc2OC(F)F)cn1` (stereo not drawn) [Compound 155, 1-(4-(6-((6-amino-2-(difluoromethyl)pyrimidin-4-yl)amino)-4-(difluoromethoxy)pyridin-3-yl)-1H-pyrazol-1-yl)propan-2-ol], the IC50 is < 10 nM.

For the compound `CC(C)Nc1cc(Nc2cc(N)nc(C(F)F)n2)ncc1C(=O)NCc1ccccn1` [Compound 158, 6-((6-amino-2-(difluoromethyl)pyrimidin-4-yl)amino)-4-(isopropylamino)-N-(pyridin-2-ylmethyl)nicotinamide], the IC50 was < 10 nM.

In general, IC50 refers to the concentration that inhibits the measured activity by half.

The values above are taken from patent US20250270190A1, “KIT INHIBITORS” (BLUEPRINT MEDICINES CORPORATION, priority 2022, published 2025).
